Measured values: US9265845B2, “Imaging methods using engineered integrin binding peptides” (The Board of Trustees of the Leland Stanford Junior …, priority 2006, dated 2016)
pIC50: −log10 of the molar value. No end group written: not given here.

Key:
[1] = target: α5β1 integrin (Homo sapiens, UniProt P05556+P08648); assay: Competition of 125I-echistatin to detergent-solubilized plate-coated integrin; type: binding; settings: 0.06 nM 125I echistatin, 5 nM and 50 nM peptide
Method: (§1) FIG. 10A through FIG. 10D is a series of histograms showing binding specificities to integrins αvβ3, αvβ5, α5β1, and αiibβ3 for engineered EETI-RGD peptides compared to controls. Error bars represent experiments performed in triplicate. Competition binding of 0.06 nM ^125I echistatin with 5 nM (black bars) and 50 nM (grey bars) unlabeled peptide to plate-coated integrins was measured. […] The engineered peptides have very little binding to αiibβ3 integrin.
(§2) This was done by competition of ^125I-echistatin to detergent-solubilized integrin receptors coated onto microtiter plates (see FIG. 10). […] This is consistent with previous studies which have shown αv integrin receptors can accommodate a wide range of RGD-containing cyclic structures. […] However, since α5β1 integrins are expressed on many tumors and are all involved in mediating angiogenesis and metastasis, a broad spectrum agent that targets all three integrins will be useful for diagnostic and therapeutic applications. With the exception of echistatin, all of the RGD-containing peptides bound weakly to the αiibβ3 receptor, showing the specificity of the present peptides for the αv and α5-containing integrin heterodimers. This characteristic is valuable for molecular imaging and therapeutic applications, since binding to αiibβ3 on platelet cells prevents blood clotting and would lead to non-specific in vivo effects.

[2] = target: αvβ3 integrin (Homo sapiens, UniProt P05106+P06756); assay: as above; type: binding; settings: 0.06 nM 125I echistatin, 5 nM and 50 nM peptide
Method: as §1, §2

[3] = target: αvβ5 integrin (Homo sapiens, UniProt P06756+P18084); assay: as above; type: binding; settings: 0.06 nM 125I echistatin, 5 nM and 50 nM peptide
Method: as §1, §2

[4] = system: U87MG glioblastoma cells; assay: Blocking of U87MG cell adhesion to vitronectin-coated plates; type: cell-based; settings: vitronectin-coated plates
Source text: (§3) The present engineered peptides may be used in a variety of ways. If the peptides are attached to a surface, they may be used to attract/recruit cells to grow on the surface. For example, the present peptides may be applied to prosthetic devices, implants, bone grafts, and the like to promote tissue growth and healing at the site. They may be attached to culture dishes and promote attachment and differentiation of cells in culture. In addition, the present engineered peptides may be used to modulate cell binding to selected integrins such as α5β1, αvβ3 and αvβ5, particularly αvβ3, by adding the peptides to a cell culture to prevent cells expressing these integrins from adhering to a substrate. […] Also, the present 2.5F, 2.5D and 1.5B peptides were tested for blocking adhesion of U87MG glioblastoma cells to fibronectin-coated plates.
(§4) In another experiment, the ability of engineered knottin peptides to block U87MG cell adhesion to vitronectin- and fibronectin-coated microtiter plates. Vitronectin is a natural ligand for several integrins, including αvβ3 and αvβ5. The RGD-containing peptides were all able to inhibit U87MG cell adhesion to vitronectin-coated plates in a dose-responsive manner. […] Fibronectin also binds to several integrins, (including αvβ3 and α5β1), but the α5β1 integrin receptor is generally selective for fibronectin.
Whether the engineered AgRP peptides could block vitronectin-mediated adhesion to the U87MG cells was tested using an analogous assay. […] The AgRP peptides may not effectively block U87MG adhesion compared to the K562-αvβ3 cells because the αvβ5 integrins co-expressed on the surface of the U87MG cells could also contribute to vitronectin-mediated adhesion and compensate for the loss of αvβ3 integrin function.

[5] = system: U87MG glioblastoma cells; assay: Blocking of U87MG cell adhesion to fibronectin-coated plates; type: cell-based
Source text: as §3, §4

[6] = Stability in human serum at 37° C., reversed-phase HPLC; type: in vitro ADME
Method: (§5) The stability of the knottin peptide 2.5D upon exposure to human or mouse serum at 37° C. was measured. Reversed-phase HPLC was used to quantify the amount of intact knottin peptide remaining at various times post incubation.
(§6) Nonradioactive mock-PET tracers are incubated with mouse and human serum for various time points at 37° C., and aliquots are acidified and flash frozen. The aliquots are then thawed and microcentrifuged at high speeds to remove aggregates. The soluble fraction is passed through a Sep-Pak C18 cartridge (Waters Corp), and rinsed several times with water containing 0.1% TFA (solvent A). The cartridge-bound PET-tracers are eluted with 90% acetonitrile containing 0.1% TFA, lyophilized, and resuspended in solvent A. The solution is passed through a NANOSEP (Pall Corp) 10 kDa cutoff filter and analyzed by reversed-phase HPLC to determine the amount of polypeptide-conjugate remaining.

[7] = in vitro; type: in vitro ADME; settings: mouse serum, 37° C., read-out: peptide remaining
Source text: Their larger size (˜3-4 kDa) and enhanced affinity compared to RGD-based cyclic peptides confer enhanced pharmacokinetics and biodistribution for molecular imaging and therapeutic applications. This is described in connection with FIG. 8. These RGD-miniproteins are small enough to allow for chemical synthesis and site-specific conjugation of imaging probes, radioisotopes, or chemotherapeutic agents. Furthermore, they can easily be chemically modified to further improve in vivo properties if necessary. […] The tumor is indicated by an arrow. The near infrared fluorescent Cy5.5 label study provides guidance for the preparation of these polypeptides as ^18F and ^64Cu-labeled PET imaging probes. […]
as §5
as §6, with “The aliquots are then thawed and microcentrifuged at high speeds to remove aggregates. The soluble fraction is passed through a Sep-Pak C18 cartridge (Waters Corp), and rinsed several times with water containing 0.1% TFA (solvent A).” left out

[8] = system: U87MG tumor; assay: MicroPET imaging and biodistribution of radiolabeled peptides in U87MG tumor-bearing mice; type: in vivo, mouse; settings: 64Cu-DOTA-labeled peptides, compared to 64Cu-DOTA-c(RGDyK)
Method: MicroPET imaging of tumor-bearing mice is performed on a microPET R4 rodent model scanner (Concorde Microsystems Inc, Knoxyille, Tenn.). U87MG tumor bearing mice are injected with PET imaging agent via the tail vein. At various times post injection, the mice are anesthetized with 2% isoflurane, and 10 min static scans are obtained. Images are reconstructed by a two-dimensional ordered expectation maximum subset algorithm as previously described. Regions of interest (ROI) are drawn over the tumor on decay corrected whole body images and ROI derived % injected dose per gram of tissue is determined. Statistical analysis is performed using the student's t-test for unpaired data. A 95% confidence level is used to determine statistical significance.
Female athymic mice bearing U87MG tumors were injected with 80-150 μCi of ^64Cu-DOTA-knottin 2.5D or 7-9 μCi of [^18F]-FB-E[knottin 2.5D]. Static images were taken at various timepoints post injection using a microPET R4 rodent model scanner (Concorde Microsystems Inc, Knoxyille, Tenn.). […] Uptake was also observed in the kidney as both probes cleared through the bladder.
Mice are sacrificed by exanguinations at various time points postinjection. Blood, tumor and the major organs and tissues are collected, wet-weighed and measured in a γ-counter. The % injected dose per gram is determined for each sample. For each mouse, radioactivity of the tissue samples is calibrated against a known aliquot of the injectate. Values are reported as the mean±standard deviation.
The following Table 10 quantifies the ^64Cu-DOTA knottin uptake by direct tissue sampling of the mice up to 24 hours post injection and is reported in % ID (percent injected dose)/gram. Similar results were obtained with [^18F]-FB-E[knottin 2.5D].
A U87MG glioblastoma xenograft mouse model was used. U87MG cells were maintained at 37° C. in a humidified atmosphere containing 5% CO2 in Dulbecco's modified eagle medium, 10% heat-inactivated fetal bovine serum, and penicillin-streptomycin (all from Invitrogen). Animal procedures were carried out according to a protocol by Stanford University Administrative Panels on Laboratory Animal Care. Female athymic nude mice (nu/nu), obtained at 4-6 weeks of age (Charles River Laboratories, Inc.), were injected subcutaneously in the right or left shoulder with 2×10^7 U87MG glioblastoma cells suspended in 100 μL of PBS. Mice were used for in vivo imaging studies when their tumors reached approximately 8 to 10 millimeters in diameter.
U87MG tumor-bearing mice (n=3 or more for each probe) were injected with ˜100 μCi of ^64Cu-DOTA-conjugated peptides via the tail vein and imaged with a microPET R4 rodent model scanner (Siemens Medical) using 3 or 5 min static scans. […] Images were reconstructed by a two dimensional ordered expectation maximum subset algorithm and calibrated as previously described (Wu, Y, Zhang, X, Xiong, Z, et al. microPET imaging of glioma integrin {alpha}v{beta}3 expression using (64)Cu-labeled tetrameric RGD peptide. J Nucl Med 2005; 46:1707-18). ROIs were drawn over the tumor on decay-corrected whole body images using ASIPro VM software (Siemens Medical). The mean counts per pixel per minute were obtained from the ROI and converted to counts per milliliter per minute with a calibration constant. ROIs were converted to counts/g/min, and % ID/g values were determined assuming a tissue density of 1 g/mL. No attenuation correction was performed.

[9] = system: α5β1 expressing cells; settings: inhibiting attachment of α5β1 expressing cells to fibronectin; cited from earlier work
[10] = system: fibronectin cell adhesion; settings: cited from earlier work

Molecule: CC(C)[C@@H]1NC(=O)[C@@H]2CSSC[C@H](NC(=O)CN)C(=O)N3CCC[C@H]3C(=O)N[C@@H](CCC(N)=O)C(=O)NCC(=O)N[C@@H](CCCNC(=N)N)C(=O)NCC(=O)N[C@@H](CC(=O)O)C(=O)N[C@@H](Cc3c[nH]c4ccccc34)C(=O)N[C@@H](C)C(=O)N3CCC[C@H]3C(=O)N[C@@H]([C@@H](C)O)C(=O)N[C@@H](CO)C(=O)N[C@H]3CSSC[C@H](NC1=O)C(=O)NCC(=O)N1CCC[C@H]1C(=O)N[C@@H](CC(N)=O)C(=O)NCC(=O)N[C@@H](Cc1ccccc1)C(=O)N[C@H](C(=O)NCC(=O)O)CSSC[C@H](NC(=O)[C@H](CC(=O)O)NC(=O)[C@H](CO)NC(=O)[C@H](CC(=O)O)NC(=O)[C@H](CCC(N)=O)NC(=O)[C@H](CO)NC3=O)C(=O)N[C@@H](CCCNC(=N)N)C(=O)N[C@@H](C)C(=O)NCC(=O)N2 [2.5D]
- binding to α5β1 integrin, in words [1]: only minimal binding
- binding to αvβ3 integrin, in words [2]: strongest levels of binding
- binding to αvβ5 integrin, in words [3]: strongest levels of binding
- blocking of U87MG cell adhesion to vitronectin, in words [4]: blocked adhesion better than controls
- blocking of U87MG cell adhesion to fibronectin, in words [5]: only echistatin and polypeptide 2.5F blocked adhesion
- remaining at 24 h ([6]; 24 h, read-out: peptide remaining): ~90%
- peptide remaining ([6]; 96 h): approximately 70%
- remaining at 24 h ([7]; 24 h): ~90%
- remaining at 96 h ([7]; 96 h): ~70%
- liver uptake, in words [8]: lower liver uptake

Molecule: CRGDCL (also: cyclic)
- fold more potent than linear RGD hexapeptides [9]: 10 fold

Molecule: GRGD
- pIC50 [10]: 2.97
